Results from US5936097A, “4,9-ethano-benzo(F)isoindole derivatives as farnesyl transferase inhibitors” (Rhone-Poulenc Rorer, S.A., priority 1995, dated 1999).

What follows are compounds tested against T1, human farnesyl transferase (Homo sapiens, UniProt P49354+P49356) (assay: inhibition of farnesyl transferase ((3H) farnesyl transfer from (3H) FPP to p21 H-ras)). Conditions: not given.
T1 construct: human farnesyl transferase purified from THP1 cell cultures; endogenous in cells; host or cells: THP1 cell cultures (enzyme purified from the cells)
Assay type: biochemical
Method: Farnesyl transferase activity is determined by the amount of (^3 H) farnesyl transferred from (^3 H) farnesylpyrophosphate [(^3 H) FPP] to the p21 H-ras protein. The standard reaction mixture is composed, for a final volume of […], of 50 mM Tris-HCl, 5 mM MgCl2, 5 mM dithiotreitol, 0.2% octyl b-D-glucopyranoside, 200 picomol p21 H-ras, 4.5 picomol (^3 H) FPP (activity 61000 dpm/picomol).
Reaction is initiated by adding approximately 5 ng of human farnesyl transferase purified from THP1 cell cultures. After incubation for 20 minutes at 37° C. in a microtitration plate containing 96 1-cm^3 wells per plate (Titer Plate®, Beckman), the reaction is stopped by adding 0.4 cm^3 of 0.1% SDS in methanol at 0° C. The mixture is then treated with 0.4 cm^3 of 30% trichloroacetic® acid (TCA) in methanol. The plates are left in ice for 1 hour. The precipitated contents are then retained on Filtermat®, Pharmacia), glass® fibre membranes with the filtration unit (Combi Cell Harvester®, Skatron), and rinsed with 6% trichloroacetic acid in distilled water. The membranes are dried in a microwave oven, then impregnated with scintillation medium by melting of Meltilex® (Pharmacia) under hot air, and lastly counted in cpm in a b-Plate counter® (LKB). Each test is repeated 3 times.
The unit of activity is defined as 1 picomole of (^3 H) FPP transferred to p21 H-ras in 20 minutes.
The percentage inhibition values are obtained by comparison of the tests with and without inhibitor after deduction of blanks, the IC50 values being measured on the basis of the inhibitions obtained with 9 different concentrations using Enzfitter® or Grafit® software.

SMILES | IC50
CSc1ccccc1CC(=O)N1CC2C3(c4ccccc4)CCC(c4ccccc43)C2(C(=O)O)C1 (single isomer, unassigned) [Example 31] | 620 nM
O=C(Cc1ccccc1F)N1C[C@@H]2[C@]3(c4ccccc4)CC[C@@H](c4ccccc43)[C@]2(C(=O)O)C1 (relative stereo) [Example 63, (3aRS,4SR,9SR,9aRS)-4,9-Ethano-2-(2-fluorophenyl)acetyl-9-phenyl-2,3,3a,4,9,9a-hexahydro-1H-benzo[f]isoindole-3a-carboxylic acid] | 7000 nM
COc1ccccc1CC(=O)N1C[C@H]2[C@@]3(c4ccccc4)CC[C@H](c4ccccc43)[C@@]2(C(=O)O)C1 [Example 47, 4,9-ethano-2-[(2-methoxyphenyl)acetyl]-9-phenyl-2,3,3a(S),4(R),9(R),9a(S)-hexahydro-1H-benzo[f]isoindole-3a-carboxylic acid] | 140 nM
COC(=O)[C@]12CN(C(=O)Cc3ccccc3OC)C[C@H]1[C@@]1(c3ccccc3)CC[C@@H]2c2ccccc21 (relative stereo) [Example 1, methyl ester of (3aRS, 4SR, 9SR, 9aRS)-4,9-ethano-2-(2-methoxyphenyl)acetyl-9-phenyl-2,3,3a,4,9,9a-hexahydro-1H-benzo[f]isoindole-3a-carboxylic acid] | 410 nM
CSc1ccccc1CC(=O)N1C[C@H]2[C@@]3(c4ccccc4)CC[C@H](c4ccccc43)[C@@]2(C(=O)O)C1 (relative stereo) [Example 30] | 600 nM
C=C(C(=O)N1C[C@@H]2[C@]3(c4ccccc4)CC[C@@H](c4ccccc43)[C@]2(C(=O)O)C1)c1ccccc1OC (relative stereo) [Example 38, (3aRS,4SR,9SR,9aRS)-4,9-ethano-2-[2-(2-methoxyphenyl)prop-2-en-1-oyl]-9-phenyl-2,3,3a,4,9,9a-hexahydro-1H-benzo[f]isoindole-3a-carboxylic acid] | 100 nM

Same assay, conditions: human farnesyl transferase purified from THP1 cell cultures; p21 H-ras substrate; 20 minutes at 37° C.; 9 concentrations; read-out: in vitro inhibitory activity IC50

SMILES | IC50
COC(=O)[C@]12CN(C(=O)Cc3ccccc3OC)C[C@H]1[C@@]1(c3ccccc3)CC[C@@H]2c2cc(C=O)ccc21 (relative stereo) [Example 97, methyl ester of (3aRS,4SR,9SR,9aRS)-4,9-ethano-6-formyl-2-[(2-methoxyphenyl)acetyl]-9-phenyl-2,3,3a,4,9,9a-hexahydro-1H-benzo[f]isoindole-3a-carboxylic acid] | 3950 nM
COc1ccccc1CC(=O)N1C[C@@H]2[C@]3(c4ccccc4)CC[C@@H](c4ccccc43)[C@]2(C(=O)NO)C1 (racemic) [Example 46, (3aRS,4SR,9SR,9aRS)-4,9-ethano-2-(2-methoxyphenylacetyl)-9-phenyl-2,3,3a,4,9,9a-hexahydro-1H-benzo[f]isoindole-3a-carbohydroxamic acid] | 1250 nM
O=C(Cc1cccc2c1OCCC2)N1C[C@H]2[C@@]3(c4ccccc4)CC[C@H](c4ccccc43)[C@@]2(C(=O)O)C1 (relative stereo) [Example 76, (3aRS,4SR,9SR,9aRS)-2-(8-chromanyl)acetyl-4,9-ethano-9-phenyl-2,3,3a,4,9,9a-hexahydro-1H-benzo[f]isoindole-3a-carboxylic acid] | 3650 nM
CNC(=O)[C@@]12CN(C(=O)Cc3ccccc3OC)C[C@@H]1[C@]1(c3ccccc3)CC[C@H]2c2ccccc21 (relative stereo) [Example 54, (3aRS,4SR,9SR,9aRS)-N-methyl-4,9-ethano-2-(2-methoxyphenyl)acetyl-9-phenyl-2,3,3a,4,9,9a-hexahydro-1H-benzo[f]isoindole-3a-carboxamide] | 4700 nM
CONC(=O)[C@@]12CN(C(=O)Cc3ccccc3OC)C[C@@H]1[C@]1(c3ccccc3)CC[C@H]2c2ccccc21 (relative stereo) [Example 56, (3aRS,4SR,9SR,9aRS)-N-methoxy-4,9-ethano-2-(2-methoxyphenyl)acetyl-9-phenyl-2,3,3a,4,9,9a-hexahydro-1H-benzo[f]isoindole-3a-carboxamide] | 8400 nM
COc1ccccc1CC(=O)N1C[C@H]2[C@@]3(c4ccccc4)CC[C@H](c4ccccc43)[C@@]2(CP(=O)(O)O)C1 (relative stereo) [Example 23] | 2600 nM
COc1ccccc1CC(=O)N1C[C@H]2[C@@]3(c4ccccc4)CC[C@H](c4ccccc43)[C@@]2(NC(=O)CCC(=O)O)C1 (relative stereo) [Example 17, (3aRS, 4SR, 9SR, 9aRS)-4,9-ethano-3a-(3-carboxypropionyl)amino-2-(2-methoxyphenyl)acetyl-9-phenyl-2,3,3a,4,9,9a-hexahydro-1H-benzo[f]isoindole] | 4900 nM
COc1ccccc1CC(=O)N1C[C@H]2[C@@]3(c4ccccc4)CC[C@H](c4ccccc43)[C@@]2(C(=O)NC(CCC(=O)O)C(=O)O)C1 (stereo partly shown) [Example 7] | 580 nM
C/C=C(/C(=O)N1C[C@H]2[C@@]3(c4ccccc4)CC[C@H](c4ccccc43)[C@@]2(C(=O)OC)C1)c1ccccc1OC (relative stereo) [Example 77, methyl ester of (3aRS,4SR,9SR,9aRS)-4,9-ethano-2-[2(E)-(2-methoxyphenyl)-2-butenoyl]-9-phenyl-2,3,3a,4,9,9a-hexahydro-1H-benzo[f]isoindole-3a-carboxylic acid] | 6700 nM

Continued, values first:

IC50 | SMILES
9000 nM | CCOC(=O)CC(=O)N[C@]12CN(C(=O)Cc3ccccc3OC)C[C@H]1[C@@]1(c3ccccc3)CC[C@@H]2c2ccccc21 (relative stereo) [Example 15, (3aRS, 4SR, 9SR, 9aRS)-4,9-ethano-3a-ethoxycarbonylacetylamino-2-(2-methoxyphenyl)acetyl-9-phenyl-2,3,3a,4,9,9a-hexahydro-1H-benzo[f]isoindole]
5150 nM | C=C(C(=O)N1C[C@H]2[C@@]3(c4ccccc4)CC[C@H](c4ccccc43)[C@@]2(C(=O)N[C@H](C)c2cccc3ccccc23)C1)c1ccccc1OC [Example 83, (3aS,4R,9R,9aS)-N-[(R)-1-(1-naphthyl)ethyl]-4,9-ethano-2-[(2-methoxyphenyl)prop-2-en-1-oyl]-9-phenyl-2,3,3a,4,9,9a-hexahydro-1H-benzo[f]isoindole-3a-carboxamide]
1270 nM | COc1ccccc1CC(=O)N1C[C@@H]2[C@]3(c4ccccc4)CC[C@@H](c4ccccc43)[C@]2(C(=O)NOCc2ccccc2)C1 (racemic) [Example 45, (3aRS,4SR,9SR,9aRS)-N-benzyloxy-4,9-ethano-2-(2-methoxyphenylacetyl)-9-phenyl-2,3,3a,4,9,9a-hexahydro-1H-benzo[f]isoindole-3a-carboxamide]
970 nM | C=C(C(=O)N1C[C@H]2[C@@]3(c4ccccc4)CC[C@H](c4ccccc43)[C@@]2(C(=O)NCc2ccc(OC)c(OC)c2)C1)c1ccccc1OC [Example 90, (3aS,4R,9R,9aS)-N-(3,4-dimethoxybenzyl)-4,9-ethano-2-[(2-methoxyphenyl)prop-2-en-1-oyl]-9-phenyl-2,3,3a,4,9,9a-hexahydro-1H-benzo[f]isoindole-3a-carboxamide]
860 nM | COc1ccccc1CC(=O)N1C[C@H]2[C@@]3(c4ccccc4)CC[C@H](c4ccccc43)[C@@]2(C(=O)N[C@H](C)c2ccccc2)C1 [Example 57, N-[(R)-1-phenylethyl]-4,9-ethano-2-(2-methoxyphenyl)acetyl-9-phenyl-2,3,3a(S),4(R),9(R),9a(S)-hexahydro-1H-benzo[f]isoindole-3a-carboxamide]
800 nM | CCCOc1ccccc1CC(=O)N1C[C@H]2[C@@]3(c4ccccc4)CC[C@H](c4ccccc43)[C@@]2(C(=O)O)C1 (relative stereo) [Example 80, (3aRS,4SR,9SR,9aRS)-4,9-ethano-9-phenyl-2-(2-n-propoxyphenyl)acetyl-2,3,3a,4,9,9a-hexahydro-1H-benzo[f]isoindole-3a-carboxylic acid]
500 nM | C=C(C(=O)N1C[C@H]2[C@@]3(c4ccccc4)CC[C@H](c4ccccc43)[C@@]2(C(=O)NCc2ccccc2)C1)c1ccccc1OC [Example 71]
210 nM | C=C(C(=O)N1C[C@H]2[C@@]3(c4ccccc4)CC[C@H](c4ccccc43)[C@@]2(C(=O)NCc2ccccc2OC)C1)c1ccccc1OC [Example 82]
150 nM | COc1ccccc1CC(=O)N1CC2C3(c4ccccc4)CCC(c4ccccc43)C2(C(=O)N[C@@H](CCSC)C(=O)O)C1 (stereo partly drawn) [Example 51, N-[(3aRS,4SR,9SR,9aRS)-4,9-ethano-2-(2-methoxy-phenyl)acetyl-9-phenyl-2,3,3a,4,9,9a-hexahydro-1H-benzo[f]isoindol-3a-yl]carbonyl-L-methionine]
50 nM | C=C(C(=O)N1C[C@H]2[C@@]3(c4ccccc4)CC[C@H](c4ccccc43)[C@@]2(C(=O)N[C@H](C(=O)O)c2ccccc2)C1)c1ccccc1OC [Example 81, N-[(3aS,4R,9R,9aS)-4,9-ethano-2-[(2-methoxy-phenyl)prop-2-en-1-oyl]-9-phenyl-2,3,3a,4,9,9a-hexahydro-1H-benzo[f]isoindol-3a-ylcarboxamide]-(S)-phenylglycine]
